Results published in ChEMBL document CHEMBL4699582, “Discovery of OATD-01, a First-in-Class Chitinase Inhibitor as Potential New Therapeutics for Idiopathic Pulmonary Fibrosis” (J Med Chem, 2020).

Experiments:
[1] = Drug uptake in C57BL/6N mouse plasma at 30 mg/kg, po qd administered via gavage measured 24 hrs post dose; type: ADME, organism-based; details: in vivo
[2] = Dose normalized Cmax in Beagle dog at 10 mg/kg, po administered as single dose by LC-MS/MS analysis; type: ADME, organism-based, Canis lupus familiaris; details: in vivo
[3] = Dose normalized Cmax in Beagle dog at 3 mg/kg, iv administered as single bolus dose by LC-MS/MS analysis; type: ADME, organism-based, Canis lupus familiaris; details: in vivo
[4] = Tmax in Sprague-Dawley rat at 6 mg/kg, po administered as single dose by LC-MS/MS analysis; type: ADME, organism-based; details: in vivo
[5] = Drug uptake in C57BL/6N mouse plasma at 30 mg/kg, po bid administered via gavage measured 24 hrs post dose; type: ADME, organism-based; details: in vivo
[6] = Volume of distribution at steady state in Balb/c mouse at 3 mg/kg, iv administered as single bolus dose measured upto 24 hrs by LC-MS/MS analysis; type: ADME, organism-based; details: in vivo, read-out: Vdss
[7] = Cmax in Beagle dog at 3 mg/kg, iv administered as single bolus dose by LC-MS/MS analysis; type: ADME, organism-based, Canis lupus familiaris; parameters: route intravenous, dose 3 mg/kg; details: in vivo
Cytochrome P450 2B6 = Cytochrome P450 2B6 (Homo sapiens, UniProt P20813); assay: Inhibition of CYP2B6 (unknown origin); type: ADME
[8] = Clearance (0 to 24 hrs) in Sprague-Dawley rat at 2 mg/kg, iv administered as single bolus dose by LC-MS/MS analysis; type: ADME, organism-based; details: in vivo
[9] = Dose normalized Cmax in Balb/c mouse at 10 mg/kg, po administered as single dose by LC-MS/MS analysis; type: ADME, organism-based; details: in vivo
[10] = biological target: Solute carrier organic anion transporter family member 1B3 (Homo sapiens, UniProt Q9NPD5); assay: Inhibition of OATP1B3 (unknown origin) at 1 to 10 uM; details: dose 1-10 µM
[11] = biological target: Broad substrate specificity ATP-binding cassette transporter ABCG2 (Homo sapiens, UniProt Q9UNQ0); assay: Inhibition of BCRP (unknown origin) at 1 to 10 uM; details: dose 1-10 µM
[12] = Cmax in Beagle dog at 10 mg/kg, po administered as single dose by LC-MS/MS analysis; type: ADME, organism-based, Canis lupus familiaris; parameters: route oral, dose 10 mg/kg; details: in vivo
[13] = biological target: Hepatic sodium/bile acid cotransporter (Homo sapiens, UniProt Q14973); assay: Inhibition of NTCP (unknown origin) at 1 to 10 uM; details: dose 1-10 µM
[14] = Clearance (0 to 24 hrs) in Beagle dog at 3 mg/kg, iv administered as single bolus dose by LC-MS/MS analysis; type: ADME, organism-based, Canis lupus familiaris; details: in vivo
Cytochrome P450 2C9 = Cytochrome P450 2C9 (Homo sapiens, UniProt P11712); assay: Inhibition of CYP2C9 (unknown origin); type: ADME
[15] = Elimination half-life in Beagle dog at 3 mg/kg, iv administered as single bolus dose by LC-MS/MS analysis; type: ADME, organism-based, Canis lupus familiaris; details: in vivo, read-out: beta t1/2 (converted)
[16] = Drug uptake in C57BL/6N mouse lung at 30 mg/kg, po bid administered via gavage measured 24 hrs post dose; type: ADME, organism-based; details: in vivo
[17] = Initial plasma concentration in Sprague-Dawley rat at 2 mg/kg, iv administered as single bolus dose by LC-MS/MS analysis; type: ADME, organism-based
[18] = Dose normalized Cmax in Sprague-Dawley rat at 6 mg/kg, po administered as single dose by LC-MS/MS analysis; type: ADME, organism-based; details: in vivo
[19] = biological target: Solute carrier family 22 member 2 (Homo sapiens, UniProt O15244); assay: Inhibition of OCT2 (unknown origin) at 1 to 10 uM
Cytochrome P450 3A4 = Cytochrome P450 3A4 (Homo sapiens, UniProt P08684); assay: Inhibition of CYP3A4 (unknown origin); type: ADME
[20] = Tmax in Balb/c mouse at 10 mg/kg, po administered as single dose by LC-MS/MS analysis; type: ADME, organism-based; details: in vivo
[21] = Dose normalized AUC (0 to 24 hrs) in Beagle dog at 10 mg/kg, po administered as single dose by LC-MS/MS analysis; type: ADME, organism-based, Canis lupus familiaris; details: in vivo
Cytochrome P450 2D6 = Cytochrome P450 2D6 (Homo sapiens, UniProt P10635); assay: Inhibition of CYP2D6 (unknown origin); type: ADME
[22] = AUC (0 to 24 hrs) in Balb/c mouse at 10 mg/kg, po administered as single dose by LC-MS/MS analysis; type: ADME, organism-based; parameters: time < 24 hr, route oral, dose 10 mg/kg; details: in vivo
[23] = biological target: Solute carrier family 22 member 6 (Homo sapiens, UniProt Q4U2R8); assay: Inhibition of OAT1 (unknown origin) at 1 to 10 uM; details: dose 1-10 µM
[24] = Clearance (0 to 24 hrs) in Balb/c mouse at 3 mg/kg, iv administered as single bolus dose by LC-MS/MS analysis; type: ADME, organism-based; details: in vivo
[25] = Dose normalized AUC (0 to 24 hrs) in Balb/c mouse at 3 mg/kg, iv administered as single bolus dose by LC-MS/MS analysis; type: ADME, organism-based; details: in vivo
[26] = Oral bioavailability in Balb/c mouse at 10 mg/kg, administered as single dose by LC-MS/MS analysis; type: ADME, organism-based; details: in vivo

Chain of Cytochrome P450 2D6 (P10635 whole entry): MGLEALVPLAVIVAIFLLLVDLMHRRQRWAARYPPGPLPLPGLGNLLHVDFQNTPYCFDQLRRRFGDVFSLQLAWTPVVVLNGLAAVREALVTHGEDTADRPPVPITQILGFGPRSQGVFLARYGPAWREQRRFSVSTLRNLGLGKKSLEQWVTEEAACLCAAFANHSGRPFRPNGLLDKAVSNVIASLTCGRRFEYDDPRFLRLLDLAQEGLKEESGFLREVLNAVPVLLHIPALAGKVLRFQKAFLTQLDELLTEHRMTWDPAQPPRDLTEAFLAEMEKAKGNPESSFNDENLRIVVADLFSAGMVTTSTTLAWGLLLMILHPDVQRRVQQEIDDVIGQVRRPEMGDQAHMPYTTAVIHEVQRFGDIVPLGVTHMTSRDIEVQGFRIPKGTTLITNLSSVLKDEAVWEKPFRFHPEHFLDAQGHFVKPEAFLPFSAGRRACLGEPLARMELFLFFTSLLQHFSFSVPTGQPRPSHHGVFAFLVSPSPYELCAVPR
Chain of Solute carrier organic anion transporter family member 1B3 (Q9NPD5 whole entry): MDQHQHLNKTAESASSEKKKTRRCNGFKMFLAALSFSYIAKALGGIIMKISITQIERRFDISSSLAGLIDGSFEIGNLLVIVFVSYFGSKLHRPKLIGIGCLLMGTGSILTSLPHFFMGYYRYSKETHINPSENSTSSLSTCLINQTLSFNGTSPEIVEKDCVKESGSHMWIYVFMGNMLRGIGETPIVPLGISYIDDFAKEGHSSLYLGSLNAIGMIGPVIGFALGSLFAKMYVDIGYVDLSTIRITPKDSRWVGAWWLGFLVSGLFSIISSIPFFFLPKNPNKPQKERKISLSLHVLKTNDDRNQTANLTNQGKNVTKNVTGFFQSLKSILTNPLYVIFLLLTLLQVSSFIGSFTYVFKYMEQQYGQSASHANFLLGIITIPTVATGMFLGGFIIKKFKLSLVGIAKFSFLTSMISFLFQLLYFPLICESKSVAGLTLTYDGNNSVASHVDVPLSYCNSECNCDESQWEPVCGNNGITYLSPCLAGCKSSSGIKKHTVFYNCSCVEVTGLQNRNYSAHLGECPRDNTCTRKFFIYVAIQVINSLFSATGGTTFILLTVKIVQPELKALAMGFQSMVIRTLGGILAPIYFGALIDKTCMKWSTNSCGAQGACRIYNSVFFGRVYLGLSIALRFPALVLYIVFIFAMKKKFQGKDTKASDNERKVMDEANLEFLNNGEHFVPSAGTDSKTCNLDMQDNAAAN
Chain of Cytochrome P450 3A4 (P08684 whole entry): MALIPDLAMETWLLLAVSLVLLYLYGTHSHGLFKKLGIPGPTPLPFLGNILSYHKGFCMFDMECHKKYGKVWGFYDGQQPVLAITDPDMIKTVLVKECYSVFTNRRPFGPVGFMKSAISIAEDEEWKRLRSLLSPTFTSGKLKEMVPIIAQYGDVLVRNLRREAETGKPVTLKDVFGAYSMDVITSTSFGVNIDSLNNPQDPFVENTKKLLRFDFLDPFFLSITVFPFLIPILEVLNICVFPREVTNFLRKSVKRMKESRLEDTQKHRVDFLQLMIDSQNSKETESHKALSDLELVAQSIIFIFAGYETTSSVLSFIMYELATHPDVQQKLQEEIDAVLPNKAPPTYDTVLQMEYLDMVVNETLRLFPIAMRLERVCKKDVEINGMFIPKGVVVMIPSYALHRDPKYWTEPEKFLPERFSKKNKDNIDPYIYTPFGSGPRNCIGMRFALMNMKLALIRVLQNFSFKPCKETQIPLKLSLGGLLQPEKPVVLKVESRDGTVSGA
Chain of Solute carrier family 22 member 2 (O15244 whole entry): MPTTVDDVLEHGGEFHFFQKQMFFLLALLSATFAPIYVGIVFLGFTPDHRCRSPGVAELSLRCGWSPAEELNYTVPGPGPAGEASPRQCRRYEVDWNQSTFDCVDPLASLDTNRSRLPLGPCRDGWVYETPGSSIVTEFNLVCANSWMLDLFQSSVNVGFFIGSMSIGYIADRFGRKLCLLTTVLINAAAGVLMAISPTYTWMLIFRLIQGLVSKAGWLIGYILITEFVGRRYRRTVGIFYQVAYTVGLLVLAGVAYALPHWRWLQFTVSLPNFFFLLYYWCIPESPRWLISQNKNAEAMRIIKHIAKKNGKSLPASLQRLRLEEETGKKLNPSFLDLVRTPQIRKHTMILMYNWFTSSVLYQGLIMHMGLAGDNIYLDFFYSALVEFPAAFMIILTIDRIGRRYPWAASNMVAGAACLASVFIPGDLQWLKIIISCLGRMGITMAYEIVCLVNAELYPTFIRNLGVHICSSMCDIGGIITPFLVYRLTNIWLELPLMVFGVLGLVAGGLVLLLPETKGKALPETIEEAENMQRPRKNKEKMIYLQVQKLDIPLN
Chain of Hepatic sodium/bile acid cotransporter (Q14973 whole entry): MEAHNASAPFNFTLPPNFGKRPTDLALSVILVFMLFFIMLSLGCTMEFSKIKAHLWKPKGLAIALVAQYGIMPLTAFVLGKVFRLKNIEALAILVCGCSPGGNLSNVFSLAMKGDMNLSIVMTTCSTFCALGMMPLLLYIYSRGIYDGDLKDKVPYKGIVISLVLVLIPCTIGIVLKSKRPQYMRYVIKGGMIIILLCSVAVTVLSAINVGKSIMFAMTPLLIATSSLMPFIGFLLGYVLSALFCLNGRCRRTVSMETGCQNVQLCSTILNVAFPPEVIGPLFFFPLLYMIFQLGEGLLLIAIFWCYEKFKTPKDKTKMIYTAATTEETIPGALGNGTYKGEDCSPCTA
Chain of Solute carrier family 22 member 6 (Q4U2R8 whole entry): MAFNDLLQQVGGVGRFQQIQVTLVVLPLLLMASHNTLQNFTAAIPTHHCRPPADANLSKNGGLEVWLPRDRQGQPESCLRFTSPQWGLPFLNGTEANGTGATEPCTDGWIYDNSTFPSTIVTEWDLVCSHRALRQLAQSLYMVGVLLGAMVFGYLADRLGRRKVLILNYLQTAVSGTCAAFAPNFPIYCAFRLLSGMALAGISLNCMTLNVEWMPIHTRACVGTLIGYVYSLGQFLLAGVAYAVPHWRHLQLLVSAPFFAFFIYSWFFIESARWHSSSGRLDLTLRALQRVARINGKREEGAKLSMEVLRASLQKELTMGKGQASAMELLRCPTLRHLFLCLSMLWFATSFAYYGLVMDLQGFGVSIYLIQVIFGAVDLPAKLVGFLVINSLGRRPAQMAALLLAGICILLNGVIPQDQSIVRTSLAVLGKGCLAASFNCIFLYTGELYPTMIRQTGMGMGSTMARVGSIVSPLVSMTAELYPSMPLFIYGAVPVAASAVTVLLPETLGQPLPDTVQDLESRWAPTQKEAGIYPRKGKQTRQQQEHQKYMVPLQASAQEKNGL
Chain of Cytochrome P450 2C9 (P11712 whole entry): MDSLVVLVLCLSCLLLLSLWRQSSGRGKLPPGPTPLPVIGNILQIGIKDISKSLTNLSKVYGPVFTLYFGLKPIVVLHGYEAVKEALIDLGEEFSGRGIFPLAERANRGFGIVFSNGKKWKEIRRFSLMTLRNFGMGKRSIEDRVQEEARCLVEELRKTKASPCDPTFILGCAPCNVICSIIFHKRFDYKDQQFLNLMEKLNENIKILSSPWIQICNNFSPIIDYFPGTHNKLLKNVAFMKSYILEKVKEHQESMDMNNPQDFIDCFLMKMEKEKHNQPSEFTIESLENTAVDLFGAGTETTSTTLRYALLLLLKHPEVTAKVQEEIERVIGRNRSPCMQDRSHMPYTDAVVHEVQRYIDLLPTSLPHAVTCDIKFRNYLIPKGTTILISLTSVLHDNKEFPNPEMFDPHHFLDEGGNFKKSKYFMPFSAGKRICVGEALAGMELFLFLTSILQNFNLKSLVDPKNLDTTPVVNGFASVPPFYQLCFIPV
Chain of Cytochrome P450 2B6 (P20813 whole entry): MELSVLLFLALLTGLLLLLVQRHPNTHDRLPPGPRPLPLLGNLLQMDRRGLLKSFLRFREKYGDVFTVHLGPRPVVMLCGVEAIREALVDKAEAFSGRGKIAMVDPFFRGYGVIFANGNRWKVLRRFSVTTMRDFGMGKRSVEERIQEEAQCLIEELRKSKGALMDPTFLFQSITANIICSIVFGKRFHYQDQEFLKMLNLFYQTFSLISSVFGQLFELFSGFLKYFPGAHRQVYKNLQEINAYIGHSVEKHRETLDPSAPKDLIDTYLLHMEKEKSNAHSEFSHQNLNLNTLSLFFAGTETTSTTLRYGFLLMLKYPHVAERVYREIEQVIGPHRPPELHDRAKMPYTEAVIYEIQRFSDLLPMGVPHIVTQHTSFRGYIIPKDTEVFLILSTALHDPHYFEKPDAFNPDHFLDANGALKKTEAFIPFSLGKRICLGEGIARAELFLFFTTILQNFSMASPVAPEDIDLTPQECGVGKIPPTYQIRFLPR
Chain of Broad substrate specificity ATP-binding cassette transporter ABCG2 (Q9UNQ0 whole entry): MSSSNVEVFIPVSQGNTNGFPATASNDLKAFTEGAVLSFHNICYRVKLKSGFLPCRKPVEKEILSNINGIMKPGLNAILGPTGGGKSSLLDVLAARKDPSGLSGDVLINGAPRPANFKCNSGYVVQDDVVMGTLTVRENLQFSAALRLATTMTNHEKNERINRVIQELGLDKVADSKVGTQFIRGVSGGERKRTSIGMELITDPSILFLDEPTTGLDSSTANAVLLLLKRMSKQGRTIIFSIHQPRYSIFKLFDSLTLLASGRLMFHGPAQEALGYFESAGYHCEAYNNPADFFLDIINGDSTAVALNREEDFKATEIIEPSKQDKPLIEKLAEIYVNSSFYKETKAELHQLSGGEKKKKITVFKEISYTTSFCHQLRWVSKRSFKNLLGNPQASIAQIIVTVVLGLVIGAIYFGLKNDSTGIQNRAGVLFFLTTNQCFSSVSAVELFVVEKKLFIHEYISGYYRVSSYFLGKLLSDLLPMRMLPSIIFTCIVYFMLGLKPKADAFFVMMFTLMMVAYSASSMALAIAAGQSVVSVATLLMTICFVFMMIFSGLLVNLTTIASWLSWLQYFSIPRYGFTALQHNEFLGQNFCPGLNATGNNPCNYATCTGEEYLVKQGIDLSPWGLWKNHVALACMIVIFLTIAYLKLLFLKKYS

Drug uptake [1]: Active
Cmax/dose [2]: 0.76 kg.mg/L.mL
Cmax/dose [3]: 0.82 kg.mg/L.mL
Tmax [4]: 2 h
Drug uptake [5]: Active
Vd [6]: 1.01 L/kg
Cmax [7]: 2470 ng/mL
inhibition (INH) (Cytochrome P450 2B6): Not Active
clearance [8]: 5.67 mL/min/kg
Cmax/dose [9]: 0.34 kg.mg/L.mL
inhibition (INH) [10]: Not Active
inhibition (INH) [11]: Not Active
Cmax [12]: 7640 ng/mL
inhibition (INH) [13]: Not Active
clearance [14]: 1.67 mL/min/kg
inhibition (INH) (Cytochrome P450 2C9): Not Active
half-life [15]: 21.9 h
Drug uptake [16]: Active
C0 [17]: 1000 ng/mL
Cmax/dose [18]: 0.37 kg.mg/L.mL
inhibition (INH) [19]: Not Active
inhibition (INH) (Cytochrome P450 3A4): Not Active
Tmax [20]: 2 h
AUC/dose [21]: 9.41 kg·mg·h/L/mg
inhibition (INH) (Cytochrome P450 2D6): Not Active
AUC(0-t) at 24 h [22]: 22200 ng·h/mL
inhibition (INH) [23]: Not Active
clearance [24]: 5.83 mL/min/kg
AUC/dose [25]: 2.87 kg·mg·h/L/mg
bioavailability [26]: 77.4%
SMILES: C[C@H]1CN(C2CCN(c3nc(N)n[nH]3)CC2)[C@@H](Cc2ccc(Cl)cc2)CO1 [5-(4-((2S,5S)-5-(4-CHLOROBENZYL)-2-METHYLMORPHOLINO)PIPERIDIN-1-YL)-1H-1,2,4-TRIAZOL-3-AMINE]
